Measurements taken from ChEMBL document CHEMBL5291721, “A preclinical secondary pharmacology resource illuminates target-adverse drug reaction associations of marketed drugs” (Nat Commun, 2023).

Columns and labels:
[1] = biological target: Vascular endothelial growth factor receptor 2 (Homo sapiens, UniProt P35968); type: functional
[2] = biological target: T1, Prostaglandin G/H synthase 1 (Rattus norvegicus, UniProt Q63921); type: functional
T1 sequence (Q63921 whole entry): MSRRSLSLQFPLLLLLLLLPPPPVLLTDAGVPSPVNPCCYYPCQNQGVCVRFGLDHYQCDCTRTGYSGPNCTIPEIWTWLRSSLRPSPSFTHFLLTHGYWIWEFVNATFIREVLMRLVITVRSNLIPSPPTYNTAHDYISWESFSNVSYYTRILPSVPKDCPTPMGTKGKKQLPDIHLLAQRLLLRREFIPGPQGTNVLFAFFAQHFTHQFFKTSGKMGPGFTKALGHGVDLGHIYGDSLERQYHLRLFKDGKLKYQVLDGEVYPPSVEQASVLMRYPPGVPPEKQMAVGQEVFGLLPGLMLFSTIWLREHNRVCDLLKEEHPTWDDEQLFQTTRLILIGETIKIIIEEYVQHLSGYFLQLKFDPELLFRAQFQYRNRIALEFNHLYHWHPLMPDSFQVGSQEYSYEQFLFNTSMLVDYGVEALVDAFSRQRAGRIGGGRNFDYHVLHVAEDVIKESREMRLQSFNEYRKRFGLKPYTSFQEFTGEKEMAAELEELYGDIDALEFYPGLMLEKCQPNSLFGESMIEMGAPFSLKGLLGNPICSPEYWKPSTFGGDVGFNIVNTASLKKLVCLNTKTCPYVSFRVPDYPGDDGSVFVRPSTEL

Adenosine receptor A1 = biological target: T2, Adenosine receptor A1 (Homo sapiens, UniProt P30542)
T2 sequence (P30542 whole entry): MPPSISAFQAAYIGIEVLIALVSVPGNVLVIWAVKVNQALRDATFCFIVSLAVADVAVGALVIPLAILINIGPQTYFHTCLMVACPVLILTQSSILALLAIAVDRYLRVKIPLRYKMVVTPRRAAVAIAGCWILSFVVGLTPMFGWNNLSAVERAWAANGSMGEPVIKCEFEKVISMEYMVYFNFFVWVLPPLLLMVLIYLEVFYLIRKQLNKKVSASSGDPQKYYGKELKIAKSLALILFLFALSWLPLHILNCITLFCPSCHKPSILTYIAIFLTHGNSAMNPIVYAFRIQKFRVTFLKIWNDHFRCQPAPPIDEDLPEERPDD

[3] = biological target: 5-hydroxytryptamine receptor 2B (Homo sapiens, UniProt P41595); type: functional, cell-based
D(1A) dopamine receptor = D(1A) dopamine receptor (Homo sapiens, UniProt P21728); type: functional, cell-based
[4] = biological target: T3, Neuropeptide Y receptor type 1 (Homo sapiens, UniProt P25929)
T3 sequence (P25929 whole entry): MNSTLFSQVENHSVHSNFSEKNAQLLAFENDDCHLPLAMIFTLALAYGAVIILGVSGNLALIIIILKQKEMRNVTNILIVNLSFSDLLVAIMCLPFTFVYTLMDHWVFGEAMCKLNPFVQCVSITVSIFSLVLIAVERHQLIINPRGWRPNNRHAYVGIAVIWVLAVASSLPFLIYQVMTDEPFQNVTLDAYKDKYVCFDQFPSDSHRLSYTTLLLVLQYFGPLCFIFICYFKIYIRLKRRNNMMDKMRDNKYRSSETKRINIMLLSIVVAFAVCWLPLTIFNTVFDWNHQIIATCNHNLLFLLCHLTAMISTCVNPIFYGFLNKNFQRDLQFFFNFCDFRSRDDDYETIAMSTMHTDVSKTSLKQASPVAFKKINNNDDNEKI

[5] = biological target: T4, Alpha-2C adrenergic receptor (Homo sapiens, UniProt P18825); type: functional
T4 sequence (P18825 whole entry): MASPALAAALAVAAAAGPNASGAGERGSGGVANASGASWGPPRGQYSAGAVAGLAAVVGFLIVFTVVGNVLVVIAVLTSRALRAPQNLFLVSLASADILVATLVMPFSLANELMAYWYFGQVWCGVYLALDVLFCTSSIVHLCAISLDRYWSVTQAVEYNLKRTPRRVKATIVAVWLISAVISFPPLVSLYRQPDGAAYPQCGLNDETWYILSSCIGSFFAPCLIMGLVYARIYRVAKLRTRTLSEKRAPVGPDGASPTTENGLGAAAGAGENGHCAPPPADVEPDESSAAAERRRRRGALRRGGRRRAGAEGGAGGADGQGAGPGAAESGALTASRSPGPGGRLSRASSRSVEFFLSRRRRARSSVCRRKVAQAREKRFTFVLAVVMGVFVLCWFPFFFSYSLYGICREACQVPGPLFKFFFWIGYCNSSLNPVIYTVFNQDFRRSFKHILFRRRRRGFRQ

B2 bradykinin receptor = biological target: T5, B2 bradykinin receptor (Homo sapiens, UniProt P30411)
T5 sequence (P30411 whole entry): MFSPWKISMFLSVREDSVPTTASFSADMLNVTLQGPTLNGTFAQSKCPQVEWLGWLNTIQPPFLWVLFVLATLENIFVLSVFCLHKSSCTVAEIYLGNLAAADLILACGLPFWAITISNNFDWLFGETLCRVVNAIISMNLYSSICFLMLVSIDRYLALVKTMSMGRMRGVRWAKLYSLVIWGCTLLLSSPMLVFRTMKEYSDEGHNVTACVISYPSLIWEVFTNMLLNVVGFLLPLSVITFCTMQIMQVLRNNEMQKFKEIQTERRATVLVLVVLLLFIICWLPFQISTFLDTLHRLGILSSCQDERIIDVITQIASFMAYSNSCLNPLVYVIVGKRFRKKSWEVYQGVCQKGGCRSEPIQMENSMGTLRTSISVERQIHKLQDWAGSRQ

[6] = biological target: 3',5'-cyclic-AMP phosphodiesterase 4D (Homo sapiens, UniProt Q08499); type: functional
[7] = biological target: Glutamate receptor ionotropic, NMDA 1 (Rattus norvegicus, UniProt P35439)
Histamine H2 receptor = Histamine H2 receptor (Homo sapiens, UniProt P25021); type: functional, cell-based
Melanocortin receptor 3 = Melanocortin receptor 3 (Homo sapiens, UniProt P41968)
Vasopressin V2 receptor = Vasopressin V2 receptor (Homo sapiens, UniProt P30518)
Further: assay procedure not described here.

Chain of Histamine H2 receptor (P25021 whole entry): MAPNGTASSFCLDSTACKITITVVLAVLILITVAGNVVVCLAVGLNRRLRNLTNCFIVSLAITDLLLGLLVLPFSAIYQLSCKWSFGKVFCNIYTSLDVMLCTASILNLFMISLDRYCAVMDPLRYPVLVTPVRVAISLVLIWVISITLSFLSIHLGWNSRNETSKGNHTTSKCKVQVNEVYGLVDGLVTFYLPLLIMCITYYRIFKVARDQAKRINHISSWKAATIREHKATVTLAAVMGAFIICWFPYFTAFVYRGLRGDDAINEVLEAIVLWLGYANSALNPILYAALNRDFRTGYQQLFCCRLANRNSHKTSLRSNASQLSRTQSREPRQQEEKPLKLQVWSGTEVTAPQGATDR
Chain of Vascular endothelial growth factor receptor 2 (P35968 whole entry): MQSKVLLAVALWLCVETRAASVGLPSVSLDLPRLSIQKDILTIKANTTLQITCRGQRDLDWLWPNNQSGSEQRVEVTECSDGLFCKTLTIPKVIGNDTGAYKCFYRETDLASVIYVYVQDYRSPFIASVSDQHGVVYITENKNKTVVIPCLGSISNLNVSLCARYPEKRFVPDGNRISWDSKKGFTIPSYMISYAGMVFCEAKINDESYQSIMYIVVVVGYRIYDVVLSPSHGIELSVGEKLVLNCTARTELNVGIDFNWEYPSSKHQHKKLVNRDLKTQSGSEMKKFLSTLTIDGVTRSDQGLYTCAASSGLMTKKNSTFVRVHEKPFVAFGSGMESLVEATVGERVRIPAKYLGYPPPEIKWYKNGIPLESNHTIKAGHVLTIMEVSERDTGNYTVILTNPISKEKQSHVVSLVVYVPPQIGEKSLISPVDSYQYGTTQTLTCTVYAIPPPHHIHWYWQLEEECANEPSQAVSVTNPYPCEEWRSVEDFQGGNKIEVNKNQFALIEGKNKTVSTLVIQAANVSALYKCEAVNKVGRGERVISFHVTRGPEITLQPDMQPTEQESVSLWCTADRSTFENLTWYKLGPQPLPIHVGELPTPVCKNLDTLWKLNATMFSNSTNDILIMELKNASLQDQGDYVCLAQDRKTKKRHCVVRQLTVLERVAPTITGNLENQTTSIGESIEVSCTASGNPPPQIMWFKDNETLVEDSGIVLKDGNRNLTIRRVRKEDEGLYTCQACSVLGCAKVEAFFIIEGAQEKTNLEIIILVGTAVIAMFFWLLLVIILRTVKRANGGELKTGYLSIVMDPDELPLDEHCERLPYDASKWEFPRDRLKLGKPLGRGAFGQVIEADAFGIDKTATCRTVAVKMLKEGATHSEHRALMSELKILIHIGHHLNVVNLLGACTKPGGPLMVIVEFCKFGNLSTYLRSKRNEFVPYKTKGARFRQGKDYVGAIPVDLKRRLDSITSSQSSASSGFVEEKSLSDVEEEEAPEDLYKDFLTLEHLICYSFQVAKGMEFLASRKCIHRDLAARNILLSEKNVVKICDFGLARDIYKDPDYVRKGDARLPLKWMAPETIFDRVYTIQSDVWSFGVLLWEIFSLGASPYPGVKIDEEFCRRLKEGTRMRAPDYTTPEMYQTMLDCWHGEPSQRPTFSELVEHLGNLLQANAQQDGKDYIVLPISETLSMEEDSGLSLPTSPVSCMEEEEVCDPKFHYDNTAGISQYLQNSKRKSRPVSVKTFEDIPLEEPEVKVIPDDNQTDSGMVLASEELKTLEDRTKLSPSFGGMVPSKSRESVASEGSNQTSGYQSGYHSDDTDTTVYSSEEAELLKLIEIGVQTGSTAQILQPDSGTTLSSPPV
Chain of Vasopressin V2 receptor (P30518 whole entry): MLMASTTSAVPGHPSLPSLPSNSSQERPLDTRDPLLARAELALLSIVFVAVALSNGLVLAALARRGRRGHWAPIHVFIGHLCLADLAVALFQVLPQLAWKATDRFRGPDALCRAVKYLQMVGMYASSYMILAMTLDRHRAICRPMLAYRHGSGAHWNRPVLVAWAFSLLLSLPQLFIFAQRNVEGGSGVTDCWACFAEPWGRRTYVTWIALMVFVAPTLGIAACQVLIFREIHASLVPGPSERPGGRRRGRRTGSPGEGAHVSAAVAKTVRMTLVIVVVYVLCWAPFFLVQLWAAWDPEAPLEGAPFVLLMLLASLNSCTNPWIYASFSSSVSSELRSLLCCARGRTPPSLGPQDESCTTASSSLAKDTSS
Chain of D(1A) dopamine receptor (P21728 whole entry): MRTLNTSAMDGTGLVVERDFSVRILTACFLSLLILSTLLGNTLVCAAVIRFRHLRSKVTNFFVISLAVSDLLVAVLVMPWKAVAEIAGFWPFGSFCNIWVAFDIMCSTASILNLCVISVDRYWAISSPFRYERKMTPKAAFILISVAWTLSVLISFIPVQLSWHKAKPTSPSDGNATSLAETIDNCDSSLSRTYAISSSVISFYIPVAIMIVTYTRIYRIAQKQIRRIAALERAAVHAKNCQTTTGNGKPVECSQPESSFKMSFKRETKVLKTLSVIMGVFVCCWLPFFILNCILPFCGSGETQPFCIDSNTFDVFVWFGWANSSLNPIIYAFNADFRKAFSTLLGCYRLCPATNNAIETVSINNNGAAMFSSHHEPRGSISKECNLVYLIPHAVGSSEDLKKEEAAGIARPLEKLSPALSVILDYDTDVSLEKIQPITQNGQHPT
Chain of Melanocortin receptor 3 (P41968 whole entry): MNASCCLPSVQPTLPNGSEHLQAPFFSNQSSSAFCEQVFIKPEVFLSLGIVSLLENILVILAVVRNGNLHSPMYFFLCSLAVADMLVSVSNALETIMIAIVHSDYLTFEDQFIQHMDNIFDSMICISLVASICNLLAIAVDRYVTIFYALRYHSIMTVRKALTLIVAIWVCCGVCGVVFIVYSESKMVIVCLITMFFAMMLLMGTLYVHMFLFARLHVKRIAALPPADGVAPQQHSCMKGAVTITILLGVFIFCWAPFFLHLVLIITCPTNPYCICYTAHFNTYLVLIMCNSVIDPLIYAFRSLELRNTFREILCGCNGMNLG
Chain of 3',5'-cyclic-AMP phosphodiesterase 4D (Q08499 whole entry): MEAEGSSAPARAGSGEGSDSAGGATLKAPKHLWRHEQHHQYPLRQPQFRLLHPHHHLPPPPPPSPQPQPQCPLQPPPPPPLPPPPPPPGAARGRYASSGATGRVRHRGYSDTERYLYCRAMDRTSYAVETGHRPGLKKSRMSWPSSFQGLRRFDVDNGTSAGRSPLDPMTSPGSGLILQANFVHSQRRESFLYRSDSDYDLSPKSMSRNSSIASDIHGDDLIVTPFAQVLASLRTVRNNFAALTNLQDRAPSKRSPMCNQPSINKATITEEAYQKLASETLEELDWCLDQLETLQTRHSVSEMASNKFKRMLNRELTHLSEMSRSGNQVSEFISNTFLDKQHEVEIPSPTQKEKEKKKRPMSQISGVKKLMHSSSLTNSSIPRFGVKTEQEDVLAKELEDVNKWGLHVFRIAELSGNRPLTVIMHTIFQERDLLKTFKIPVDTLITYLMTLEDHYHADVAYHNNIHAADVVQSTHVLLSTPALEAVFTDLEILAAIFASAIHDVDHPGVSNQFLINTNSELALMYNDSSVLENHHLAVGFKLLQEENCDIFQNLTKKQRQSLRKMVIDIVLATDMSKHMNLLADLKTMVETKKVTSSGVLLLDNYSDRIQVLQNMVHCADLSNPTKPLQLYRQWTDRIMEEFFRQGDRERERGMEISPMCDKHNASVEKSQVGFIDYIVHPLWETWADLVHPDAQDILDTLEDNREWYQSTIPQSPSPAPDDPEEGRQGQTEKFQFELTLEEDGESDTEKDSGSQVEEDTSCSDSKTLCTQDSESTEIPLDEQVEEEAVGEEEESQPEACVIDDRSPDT
Chain of 5-hydroxytryptamine receptor 2B (P41595 whole entry): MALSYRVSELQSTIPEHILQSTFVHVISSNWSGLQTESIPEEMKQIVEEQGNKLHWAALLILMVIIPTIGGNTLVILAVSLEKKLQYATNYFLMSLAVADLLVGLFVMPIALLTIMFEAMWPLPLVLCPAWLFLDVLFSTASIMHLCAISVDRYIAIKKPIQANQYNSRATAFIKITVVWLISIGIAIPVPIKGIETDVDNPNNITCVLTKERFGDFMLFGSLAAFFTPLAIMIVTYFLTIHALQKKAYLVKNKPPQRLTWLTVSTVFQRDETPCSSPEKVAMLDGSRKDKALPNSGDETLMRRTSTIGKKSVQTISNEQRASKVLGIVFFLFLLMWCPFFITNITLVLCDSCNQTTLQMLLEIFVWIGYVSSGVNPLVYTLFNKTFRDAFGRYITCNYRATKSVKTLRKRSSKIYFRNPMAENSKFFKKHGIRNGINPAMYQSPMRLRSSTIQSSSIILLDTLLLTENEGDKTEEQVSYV

SMILES | AC50 [1] | AC50 [2] | AC50 (Adenosine receptor A1) | AC50 [3] | AC50 (D(1A) dopamine receptor) | AC50 [4] | AC50 [5] | AC50 (B2 bradykinin receptor) | AC50 [6] | AC50 [7] | AC50 (Histamine H2 receptor) | AC50 (Melanocortin receptor 3) | AC50 (Vasopressin V2 receptor)
CC(C1=C(CCN(C)C)Cc2ccccc21)c1ccccn1 (stereo not drawn) | > 30 µM |  |  |  |  |  |  |  |  |  |  |  | 
CC(=O)OC(C)OC(=O)C(C)c1ccc(-c2ccccc2)c(F)c1 (stereo not drawn) | > 30 µM |  |  |  |  |  |  |  |  |  |  |  | 
C[C@H](N)C(=O)O [ALANINE] | > 30 µM |  |  |  |  |  |  |  |  |  |  |  | 
O=C1c2c(O)cccc2Cc2cccc(O)c21 [ANTHRALIN] | 6.14 µM |  |  |  |  |  |  |  |  |  |  |  | 
COC(=O)C1=C(C)NC(C)=C(C(=O)O[C@H]2CCN(Cc3ccccc3)C2)[C@H]1c1cccc([N+](=O)[O-])c1 [BARNIDIPINE] | > 30 µM |  |  |  |  |  |  |  |  |  |  |  | 
CCCCOc1ccc(CC(=O)NO)cc1 [BUFEXAMAC] | > 30 µM |  |  |  |  |  |  |  |  |  |  |  | 
Cc1nnc(SCC2=C(C(=O)O)N3C(=O)[C@@H](NC(=O)Cn4cc(Cl)c(=O)c(Cl)c4)[C@H]3SC2)s1 [CEFAZEDONE] | 10.1 µM |  |  |  |  |  |  |  |  |  |  |  | 
Nc1ncnc(Nc2ccc(Cl)cc2)n1 [CHLORAZANIL] | 15 µM |  |  |  |  |  |  |  |  |  |  |  | 
O=C(O)CC(O)(CC(=O)O)C(=O)O [CITRIC ACID] | > 30 µM |  |  |  |  |  |  |  |  |  |  |  | 
CCC[C@@H]1C[C@@H](C(=O)N[C@@H]([C@H]2O[C@H](SC)[C@H](OP(=O)(O)O)[C@@H](O)[C@H]2O)[C@H](C)Cl)N(C)C1 [CLINDAMYCIN PHOSPHATE] | > 30 µM |  |  |  |  |  |  |  |  |  |  |  | 
Cc1onc(-c2c(Cl)cccc2Cl)c1C(=O)N[C@@H]1C(=O)N2[C@@H]1SC(C)(C)[C@@H]2C(=O)O [DICLOXACILLIN] | > 30 µM |  |  |  |  |  |  |  |  |  |  |  | 
C[C@H]1O[C@@H](O[C@H]2[C@@H](O)C[C@H](O[C@H]3[C@@H](O)C[C@H](O[C@H]4CC[C@@]5(C)[C@H](CC[C@@H]6[C@@H]5CC[C@]5(C)[C@@H](C7=CC(=O)OC7)CC[C@]65O)C4)O[C@@H]3C)O[C@@H]2C)C[C@H](O)[C@@H]1O [DIGITOXIN] | > 30 µM |  |  |  |  |  |  |  |  |  |  |  | 
OC(CCCN1CCCCC1)(c1ccccc1)c1ccccc1 [DIPHENIDOL] | > 30 µM |  |  |  |  |  |  |  |  |  |  |  | 
O=C(CCCN1CC=C(n2c(=O)[nH]c3ccccc32)CC1)c1ccc(F)cc1 [DROPERIDOL] | > 30 µM |  |  |  |  |  |  |  |  |  |  |  | 
C[C@@H](O)[C@H]1C(=O)N2C(C(=O)O)=C([C@H]3CCCO3)S[C@H]12 [FAROPENEM] | > 30 µM |  |  |  |  |  |  |  |  |  |  |  | 
CCOC(=O)c1ccc(OC(=O)CCCCCNC(=N)N)cc1 [GABEXATE] | > 30 µM |  |  |  |  |  |  |  |  |  |  |  | 
CCCCC/C=C\C/C=C\C/C=C\CCCCC(=O)O [GAMOLENIC ACID] | > 30 µM |  |  |  |  |  |  |  |  |  |  |  | 
COCCOc1cnc(NS(=O)(=O)c2ccccc2)nc1 [GLYMIDINE] | > 30 µM |  |  |  |  |  |  |  |  |  |  |  | 
CC(N)CCCC(C)(C)O (stereo not drawn) [HEPTAMINOL] | > 30 µM |  |  |  |  |  |  |  |  |  |  |  | 
CCC(=O)O[C@]1(C(=O)COC(C)=O)CC[C@H]2[C@@H]3CCC4=CC(=O)CC[C@]4(C)[C@H]3[C@@H](O)C[C@@]21C [HYDROCORTISONE ACEPONATE] | > 30 µM |  |  |  |  |  |  |  |  |  |  |  | 
COc1cccc(N(C)C(=S)Oc2ccc3c(c2)CCCC3)n1 [LIRANAFTATE] |  | > 30 µM | > 30 µM | > 30 µM | > 30 µM | > 30 µM | > 30 µM | > 30 µM | > 30 µM | > 30 µM | > 30 µM | > 30 µM | > 30 µM
C#C[C@]1(O)CC[C@H]2[C@@H]3CCc4cc(OC)ccc4[C@H]3CC[C@@]21C [MESTRANOL] |  | > 10 µM | > 30 µM | > 10 µM | > 10 µM | > 10 µM | > 30 µM | > 10 µM | > 30 µM | > 10 µM | > 30 µM | > 10 µM | > 10 µM
N=C(N)c1ccc2cc(OC(=O)c3ccc(N=C(N)N)cc3)ccc2c1 [NAFAMOSTAT] |  | > 30 µM | > 30 µM | 29 µM | > 30 µM | 10 µM | 3.2 µM | > 30 µM | > 30 µM | 0.29 µM | > 30 µM | > 30 µM | > 30 µM
O=C(O)c1cc(O)c2c3nc4ccccc4oc-3cc(=O)c2n1 [PIRENOXINE] |  | > 30 µM | > 30 µM | > 30 µM | > 30 µM | > 30 µM | 2.7 µM | > 30 µM | > 30 µM | > 30 µM | > 30 µM | > 30 µM | > 30 µM
NS(=O)(=O)c1cc(C(=O)O)cc(N2CCCC2)c1Oc1ccccc1 [PIRETANIDE] |  | > 30 µM | > 30 µM | > 30 µM | > 30 µM | > 30 µM | > 30 µM | > 30 µM | > 30 µM | > 30 µM | > 30 µM | > 30 µM | > 30 µM
COCCCOc1ccnc(C[S+]([O-])c2nc3ccccc3[nH]2)c1C (stereo not drawn) [RABEPRAZOLE] |  | > 30 µM | 22.5 µM | 12 µM | > 10 µM | 20.5 µM | > 10 µM | > 30 µM | 8 µM | > 10 µM | > 10 µM | > 30 µM | > 30 µM
CC(C)=CCOc1ccc(/C=C/C(=O)c2ccc(OCC=C(C)C)cc2OCC(=O)O)cc1 [SOFALCONE] |  | > 30 µM | > 30 µM | > 30 µM | > 30 µM | > 30 µM | > 30 µM | > 3 µM | > 30 µM | > 30 µM | > 30 µM | > 30 µM | > 30 µM
CN(C)c1cc(NC(=O)CNC(C)(C)C)c(O)c2c1C[C@H]1C[C@H]3[C@H](N(C)C)C(O)=C(C(N)=O)C(=O)[C@@]3(O)C(O)=C1C2=O [TIGECYCLINE] |  | 0.16 µM | > 30 µM | > 30 µM | > 30 µM | > 30 µM | > 30 µM | > 30 µM | > 30 µM | > 30 µM | > 30 µM | > 30 µM | > 30 µM
OCCN1CCN(CC/C=C2/c3ccccc3Sc3ccc(Cl)cc32)CC1 [ZUCLOPENTHIXOL] |  | > 10 µM | > 10 µM | 0.92 µM | > 10 µM | > 10 µM | 0.16 µM | > 10 µM | > 10 µM | > 10 µM | > 10 µM | > 10 µM | > 10 µM
